Here are results for 1 compound from paper PMC11555231 (Nature Communications, 2024).

Each structure is given as a SMILES string. Bridge positions count the residues as written; N and C are the ends. Square brackets hold non-standard residues; d marks the D form. Peptide text beside a SMILES is read from it.

For one data set, the system named is HaLo-GFP-mito HeLa cells. Description: Chloroalkane penetration assay (CAPA). The class given is in vitro ADME. To be noted: CAPA, chloroalkane-tagged peptide, 4 h in Opti-MEM, 37 °C, chase HaLo-Tag TMR ligand 5 µM 15 min, flow cytometry; mean ± SEM of three independent experiments. How it is done:
Following the addition of chloroacetyl-NHS to the N-terminal amino group, Cys(mmt) was selectively deprotected using 1% TFA, 5% triisopropylsilane in DCM (30 min, RT). Peptides were then cyclised on resin using 2% diisopropylethylamine in DMF overnight. Following cyclisation, Lys(ivDde) was deprotected using 2% hydrazine in DMF. The resin was then washed (3 x DCM, 3 x DMF) before on-resin coupling of chloroalkane carboxylic acid was performed on the lysine side chain using Hexafluorophosphate Azabenzotriazole Tetramethyl Uronium / diisopropylethylamine in DMF for 2 h. Global deprotection and purification were then carried out as described above. Chloroalkane carboxylate was synthesised as previously described.
CAPA assays were performed following the protocol published in ref. [51]. In brief, 40,000 HaLo- GFP-mito HeLa cells were seeded in a 96-well plate. Twenty-four hours later, cells were treated with different concentrations of chloroalkane-tagged peptides (100 µM to 200 nM for PADI4_3 and PADI4_3i and 50 µM to 100 nM for PADI4_11 and PADI4_11i) for 4 h in Opti-MEM. Media containing peptides was then removed, and cells were incubated with Opti-MEM (Gibco) for 15 min. After that time, the wash was removed, and cells were chased with HaLo-Tag TMR ligand (5 µM, Promega) in Opti-MEM for 15 min. The ligand was then removed, and cells were incubated with Opti-MEM for 30 min. Cells were then trypsinised, resuspended in phosphate-buffered saline (PBS) with 0.5% FBS and analysed using a benchtop flow cytometer (MACSQuant® VYB Flow cytometer Milteny Biotec). For each well, 10000 GFP positive single cells were analysed (gating workflow shown in Supplementary Fig. 18), and TMR mean fluorescence was normalised against a positive control (cells treated with HaLo-Tag TMR ligand but no peptide) and a negative control (non-treated cells). Analysis was performed using FlowJo (LCC) software and Prism GraphPad (Dotmatics). Data were presented as the average ± standard error of three independent replicates.
Background: A flow cytometer gives signals particle by particle.

Data set [1] concerns human neutrophils. Kind of data set: Cholesterol crystal stimulation and NET preparation, immunoblot of citrullinated histone H3. The class given is cell-based. To be noted: 50 µM peptide pre-incubated 1 h, 1 mg/ml cholesterol crystals. The procedure: (§1) Peripheral venous blood was isolated from consenting healthy adult volunteers in heparin tubes as previously described. Briefly, blood samples were on Histopaque 1119 (Sigma-Aldrich) and then centrifuged for 20 min at 800 × g. The plasma was collected and centrifuged for a second time for 20 min at 800 × g. The neutrophil layer was collected and washed in Hyclone Hank’s Balanced Salt Solution (HBSS) -Ca, -Mg, -Phenol red (GE Healthcare) supplemented with 10 mM HEPES (Invitrogen) 0.1% FBS and further purified with a discontinuous Percoll (GE Healthcare) gradient consisting of layers with densities of 85, 80, 75, 70 and 65% and centrifuged for 20 min at 800 × g. Neutrophil-enriched layers were then collected and washed, and neutrophil purity was assessed using flow cytometry.
About 1 × 10^6 human blood neutrophils were isolated as described in the “Human neutrophils from peripheral blood healthy donors” section. Neutrophils were seeded in 6 well plates in HBSS +Ca, +Mg, -Phenol red (GE Healthcare) containing 10 mM HEPES (Invitrogen), left to settle for 30 min, then pre-incubated with either 50 μM PADI4_3, PADI4_3i or DMSO (0.5%) for 1 h. […] NET DNA concentration was determined by Quant-iT Picogreen dsDNA reagent as per the manufacturer’s instructions (Thermo Fisher Scientific). […]

For data set [2], the system named is human neutrophils. Description: Ca-ionophore stimulated neutrophils, citrullinated H3 immunostaining and confocal microscopy / immunoblot. The class given is cell-based. To be noted: 50 µM peptide, pre-incubated 60 min, 5 µM Ca-Ionophore. How it is done: as §1
About 5 × 10^4 sorted neutrophils were seeded in 24-well cell culture plates containing glass coverslips in HyClone HBSS +Ca, +Mg, - Phenol red (GE Healthcare) supplemented with 10 mM HEPES (Invitrogen). Neutrophils were stimulated with 5 µM Ca-Ionophore (Sigma) and fixed for 20 min at room temperature with 2% paraformaldehyde at RT. Cells were then washed and permeabilized with 0.5% Triton X-100 in PBS. Non-specific binding was blocked with 2% BSA (Sigma) and 2% donkey serum (Sigma) in PBS. Samples were stained with DAPI (Life Technologies), the rabbit anti-CitH3 (Abcam; ab5103 1:500) and donkey anti-rabbit alexa488 (Invitrogen; A21206). Fluorescence imaging was performed on a Leica TCS SP8 inverted confocal microscope using sequential scan in between frames mode with a 20x objective.
Neutrophil samples were boiled in a sodium dodecyl sulphate (SDS) buffer containing dithiothreitol (DTT) and run on a polyacrylamide gel electrophoresis (SDS-PAGE) using Criterion TGX precast gels (Any-KD; Bio-Rad Laboratories). Proteins were then transferred to a PVDF membrane (Bio-Rad Laboratories) via semi-dry transfer. The membrane was blocked with 5% BSA (Fisher Scientific) in Tris-buffered saline with 0.1% Tween-20 (TBS-T). Levels of citrullinated histone H3, total H3 and myeloperoxidase (MPO) were assessed by incubating membranes in either anti-histone H3 citrulline R2 + R8 + R17 (Abcam; ab5103 1:1000), anti-histone H3 (Millipore; 07-690 1:10000) or anti-MPO (DAKO; A0398 1:2500) overnight at 4 °C, respectively. For cell lysate-based assays and pull-down assays, membranes were incubated as above with anti-hPADI4 (Abcam; ab50332; 1:1000 in 5% BSA/TBS-T), anti-Bcr (Cell Signalling #3902S; 1:1000 in 3% milk/TBS-T) and anti-Impdh2 (Cell Signalling #57068S; 1:1000 in 3% milk/TBS-T). Membranes were washed in 0.1% TBS-T and subsequently incubated with goat anti-rabbit HRP or anti-goat (Fisher Scientific) for 1 h, followed by final washes in 0.1% TBS-T. Membranes were imaged with enhanced chemiluminescent substrate (ECL) (Thermo Fisher) on a Bio-Rad imager.
(In general: Immunoblotting shows a protein as a band on a membrane.)

As to `N=C(N)NCCC[C@@H]1NC(=O)[C@H](CC(=O)O)NC(=O)[C@@H](Cc2ccc(O)cc2)NC(=O)CSC[C@@H](C(=O)NCC(N)=O)NC(=O)[C@H](Cc2ccc(O)cc2)NC(=O)[C@H](CCCCN)NC(=O)[C@@H]2CCCN2C(=O)[C@H](Cc2c[nH]cn2)NC(=O)[C@H](CCCNC(=N)N)NC(=O)[C@H](Cc2ccc(O)cc2)NC(=O)[C@H](Cc2c[nH]cn2)NC(=O)[C@H](Cc2c[nH]cn2)NC1=O` [PADI4_3i] ({CH2CO}-[dY]DRHHYRHPKYCG-NH2; thioether N-12), the CP50 in the data set with HaLo-GFP-mito HeLa cells came out at 2.0 ± 0.8 µM. Besides, the “citrullination of histone 3 in NET preparations” value in the data set with human neutrophils [1] is listed as “abolished by PADI4_3 but not PADI4_3i”. In the data set with human neutrophils [2], the “H3Cit levels in neutrophils treated with calcium ionophore” value was “neither response was affected”.
